Publication PMC5893615, “Inhibition of homoserine dehydrogenase by formation of a cysteine-NAD covalent complex” (Scientific Reports, 2018)

Legend:
[1] = biological target: T1, Homoserine dehydrogenase (StHSD) (Sulfurisphaera tokodaii, UniProt F9VNG5); test: product inhibition kinetics of homoserine oxidation (double reciprocal plots); assay type: biochemical
T1 construct: gene hom

[2] = biological target: T1, Homoserine dehydrogenase (StHSD); test: crystal structure with cysteine at […] Å; steady-state kinetics (apparent Km); assay type: biochemical; conditions: cited from earlier work
[3] = biological target: T1, Homoserine dehydrogenase (StHSD); test: crystal structure with NAD at […] Å; Ki from Dixon plots of homoserine oxidation by purified enzyme; difference UV spectrum; assay type: biochemical
[4] = biological target: T1, Homoserine dehydrogenase (StHSD); test: initial velocity and product inhibition kinetics of NAD-dependent oxidation by purified enzyme; assay type: biochemical
[5] = substrate: NC(=O)c1ccc[n+]([C@@H]2O[C@H](COP(=O)([O-])OP(=O)(O)OC[C@H]3O[C@@H](n4cnc5c(N)ncnc54)[C@H](OP(=O)(O)O)[C@@H]3O)[C@@H](O)[C@H]2O)c1; test: steady-state kinetics of purified enzyme (apparent Km); assay type: biochemical, Sulfurisphaera tokodaii; conditions: Phe49 could exclude the C2′ phosphate group of NADP; varied: cofactor

## NC(=O)C1=CN([C@@H]2O[C@H](COP(=O)(O)OP(=O)(O)OC[C@H]3O[C@@H](n4cnc5c(N)ncnc54)[C@H](O)[C@@H]3O)[C@@H](O)[C@H]2O)C=CC1 [NADH]
[1]
  product inhibition kinetics of homoserine oxidation (double reciprocal plots): which suggests that NADH acts as a competitive inhibitor of NAD

## NC(=O)c1ccc[n+]([C@@H]2O[C@H](COP(=O)([O-])OP(=O)(O)OC[C@H]3O[C@@H](n4cnc5c(N)ncnc54)[C@H](O)[C@@H]3O)[C@@H](O)[C@H]2O)c1 [NAD]
[2]
  Km: 330 µM

## N[C@@H](CS)C(=O)O [cysteine]
[3]
  Ki: 11 µM

## N[C@@H](CCO)C(=O)O [homoserine]
[4]
  initial velocity and product inhibition kinetics of NAD-dependent oxidation by p: NAD binds to the free form of the enzyme, after which homoserine binds to the enzyme-NAD complex

B1: Homoserine dehydrogenase (StHSD) (Sulfurisphaera tokodaii str. 7) (protein)
chain: MKLLLFGYGNVGKAFRKLLHEKRSPELNDVIIGGIVTRRGIMLQDKEDFTPDLEGDVFKAFEKIKPDIIVDVSSANYNNGEPSLSLYKEAIKDGVNIITTNKAPLALAFNEIFSLARSKGVKIGFQGTVMSGTPSINLYRVLPGSRVIKIRGILNGTTNFILTLMNKGVSFEEALKEAQRRGYAEEDPTLDINGFDAAAKITILANFMIGNSVTIKDVKFEGINRDLPKNEKIKLIAYADEKEVWVKPLPISQDDPLYNVDGVENALEITTDIQSILIRGPGAGPVNAAYGALSDLILLKRDCL
[5]
  Km: 1200 µM
